Results as given in article PMC5772236, “In Vitro Enzymatic Depolymerization of Lignin with Release of Syringyl, Guaiacyl, and Tricin Units” (Applied and Environmental Microbiology, 2018).

Experiments:
Format in all cases: biochemical
LigG = target: T1, LigG (Sphingomonas paucimobilis, UniProt Q9WXJ9); assay: coupled assay, HPLC of products; details: 25 mM Tris, 2% DMSO, pH 8.0, GSH co-substrate; GS-HPV formed in situ by LigD/LigN/LigE/LigF; epimers not both completely cleaved
T1 construct: recombinant, E. coli, codon optimized; His tag cut by Tev protease (procedure cited)
T1 sequence (Q9WXJ9 1-265): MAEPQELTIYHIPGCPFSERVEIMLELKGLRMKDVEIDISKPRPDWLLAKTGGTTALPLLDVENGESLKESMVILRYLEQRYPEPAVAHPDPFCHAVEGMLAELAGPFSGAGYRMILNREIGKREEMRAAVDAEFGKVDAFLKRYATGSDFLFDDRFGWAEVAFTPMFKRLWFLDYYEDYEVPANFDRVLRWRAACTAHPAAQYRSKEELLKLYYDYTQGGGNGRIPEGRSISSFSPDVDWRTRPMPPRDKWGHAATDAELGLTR

NaGSTNU = target: T2, NaGSTNU (Novosphingobium aromaticivorans, UniProt Q2G542); assay: coupled assay with and without enzyme, HPLC of products; details: 25 mM Tris, 2% DMSO, pH 8.0, GSH co-substrate; GS-HPV formed in situ by LigD/LigN/LigE/LigF; both beta-epimers cleaved
T2 construct: gene Saro_2595; recombinant, E. coli B834; N-terminal His tag cut by Tev protease; cloned from genomic DNA
T2 sequence (Q2G542 1-288): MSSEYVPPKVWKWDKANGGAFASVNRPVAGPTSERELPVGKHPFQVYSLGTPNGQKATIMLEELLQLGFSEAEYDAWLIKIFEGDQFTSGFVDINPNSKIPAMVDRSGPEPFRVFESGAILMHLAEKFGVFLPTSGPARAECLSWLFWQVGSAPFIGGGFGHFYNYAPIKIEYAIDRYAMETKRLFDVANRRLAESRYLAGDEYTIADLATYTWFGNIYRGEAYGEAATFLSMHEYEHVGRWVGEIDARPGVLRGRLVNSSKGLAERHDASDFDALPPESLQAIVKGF

AvGR = target: T3, AvGR (Allochromatium vinosum, UniProt D3RSV1); assay: coupled assay with and without AvGR, HPLC of products; details: 25 mM Tris, 2% DMSO, pH 8.0; NADH formed in situ by LigD/LigN; GSSG co-substrate
T3 construct: gene Alvin_1323; recombinant, E. coli B834, codon optimized, pVP302K; N-terminal His tag cut by Tev protease
T3 sequence (D3RSV1 1-458): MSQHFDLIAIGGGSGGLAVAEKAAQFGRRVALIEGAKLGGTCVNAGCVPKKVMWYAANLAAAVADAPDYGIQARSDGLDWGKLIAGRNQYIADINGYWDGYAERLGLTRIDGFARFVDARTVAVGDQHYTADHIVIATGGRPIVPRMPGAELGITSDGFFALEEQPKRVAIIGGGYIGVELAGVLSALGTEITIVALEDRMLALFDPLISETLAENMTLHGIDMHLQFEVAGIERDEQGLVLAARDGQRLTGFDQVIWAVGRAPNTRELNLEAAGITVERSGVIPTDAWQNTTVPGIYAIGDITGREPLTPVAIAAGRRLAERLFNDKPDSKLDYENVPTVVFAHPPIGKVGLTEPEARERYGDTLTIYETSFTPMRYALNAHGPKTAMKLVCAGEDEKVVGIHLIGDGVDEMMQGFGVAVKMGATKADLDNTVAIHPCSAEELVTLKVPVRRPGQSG

SMILES | coupled assay, HPLC of products (LigG) | coupled assay with and without enzyme, HPLC of products (NaGSTNU) | coupled assay with and without AvGR, HPLC of products (AvGR)
COc1cc(C(=O)C(CO)SC[C@H](NC(=O)CC[C@H](N)C(=O)O)C(=O)NCC(=O)O)ccc1O (mixture of isomers) [GS-HPV, β-S-glutathionyl-γ-hydroxypropiovanillone] | LigG is not able to completely cleave both β-epimers of GS-HPV in vitro | the absence of NaGSTNU prevented the conversion of GS-HPV to HPV | 
NC(=O)C1=CN([C@@H]2O[C@H](COP(=O)(O)OP(=O)(O)OC[C@H]3O[C@@H](n4cnc5c(N)ncnc54)[C@H](O)[C@@H]3O)[C@@H](O)[C@H]2O)C=CC1 [NADH] |  |  | the presence of AvGR is sufficient to recycle the cosubstrates NAD^+ and GSH
